Common to all, as to test: NCI tumour cell line growth inhibition, 48 h
The subject of test [1] is SK-MEL-28 melanoma.
In test [2] the test system is CAKI-1 renal.
Test [3] deals with HOP-62 NSCLC.
For test [4], the system named is OVCAR-5 ovarian.
Test [5] has as its system SK-OV-3 ovarian.
The test system of test [6] is SN12C renal.
Test [7] relates to SF-295 CNS.
The test system of test [8] is NCI-H23 lung.
Test [9] concerns SNB-19 CNS.

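Method: 48-hour compound exposure of cells in 96-well plates, five concentrations, linear interpolation of endpoints. GI50 = concentration required for 50% inhibition of growth. TGI: total growth inhibition.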

For the compound `CC(=O)[CH-]C(=O)c1ccccc1.CC(=O)[CH-]C(=O)c1ccccc1.CC(C)CCCC(C)[C@H]1CCC2[C@@H]3CCC4C[C@@H]([O-])CC[C@]4(C)C3CC[C@@]21C.CC(C)CCCC(C)[C@H]1CCC2[C@@H]3CCC4C[C@@H]([O-])CC[C@]4(C)C3CC[C@@]21C.Cl.[Ti+4]` (stereo not given in full), the GI50 in test [1], in test [2], in test [3], in test [4], in [5] and in [6] was above 25 µM each time. For the same compound, the GI50 in [7], in test [8] and in test [9] was above 25 µM in each case. The TGI in test [1], in [2], in test [3], in [4], in [5] and in test [6] was above 25 µM in each case. For the same compound, the TGI in [7], in [8] and in [9] was above 25 µM in each case.

`Nc1nc(N)c2ncn(Cc3c(Cl)cccc3Cl)c2n1`: the TGI in [1], in test [2], in [3], in [4], in test [5] and in test [6] was above 100 µM in each case. The TGI in test [7], in test [8] and in [9] was above 100 µM in each case.

With `CC(=O)[CH-]C(=O)c1ccccc1.CC(=O)[CH-]C(=O)c1ccccc1.[O-]c1ccc(O)cc1.[O-]c1ccc(O)cc1.[Ti+4]`, the GI50 is 18.6 µM in test [1]; 17 µM in [2]; 18.8 µM in test [3]; 35.1 µM in [4]; 24.4 µM in [5]; 14.3 µM in test [6]. In addition, the GI50 in [7] was 16.5 µM; in [9], 18.9 µM. Further, the TGI in [1] was determined as 35.7 µM; in test [2], 34.1 µM; in test [3], 41.5 µM; in test [4], 91.4 µM; in [5] it was 76.8 µM; in test [6] it was 36.4 µM. The TGI in test [7] came to 34.3 µM; in test [9], 40 µM.

As for `COc1ccc(OC)c(-c2cn3nc(-c4c[nH]c5ccc(Br)cc45)sc3n2)c1`, the GI50 is 3.29 µM in test [1]; 2.04 µM in test [2]; 2.7 µM in test [3]; 3.52 µM in [4]; 9.01 µM in [5]; 2.74 µM in [6]. Also, the GI50 in [7] is 4.7 µM; in test [8], 1.99 µM; in test [9], 4.51 µM. Further, the TGI in [1] was found to be 11.7 µM; in [2], 6.22 µM; in test [3], 13.3 µM; in [4] it was 15.6 µM; in test [5], 22.8 µM; in test [6] it was 10 µM. Moreover, the TGI in test [7] came to 16.3 µM; in test [8], 4.82 µM; in [9], 18.6 µM.

For `CCC1N2CCCCC2[C@@H]2c3[nH]c4ccccc4c3CCN12` (stereo not given in full), the TGI in test [1], in test [2], in test [3], in test [4], in test [5] and in test [6] was above 100 µM in each case. Also, the TGI in test [7], in [8] and in test [9] was above 100 µM each time.

As to `CC[O+]=c1cccc2ssnc1-2`, the TGI in [1], in [2], in test [3], in [4], in test [5] and in [6] was above 100 µM in each case. Further, the TGI in [7] and in [9] was above 100 µM throughout.

For `CCOc1ccc2c(-c3ccnc(Nc4cccc(C(F)(F)F)c4)n3)cnn2n1`, the GI50 in test [1] is above 25 µM; in test [2], above 14.7 µM; in test [3], above 21 µM; in test [4], above 15.9 µM; in test [5] it was 8.11 µM; in [6] it was 15.1 µM. For the same compound, the GI50 was above 25 µM in test [7], 6.97 µM in [8] and 13.6 µM in test [9]. For the same compound, the TGI is above 25 µM in [1]; above 25 µM in test [2]; above 25 µM in [3]; above 25 µM in test [4]; 18.9 µM in test [5]; above 25 µM in [6]. The TGI is above 25 µM in test [7], above 20 µM in test [8] and above 25 µM in [9].

On to `CC(C)c1cccc2sc(NC(=O)C(=O)CC(=O)c3ccc(F)cc3)nc12`, for which the TGI in [1], in test [2], in test [3], in [4], in test [5] and in test [6] was above 100 µM each time. Moreover, the TGI in test [7], in [8] and in test [9] was above 100 µM each time.

The record behind these values is PubChem BioAssay (NCI).
